Here are results for two molecules from ChEMBL document CHEMBL5046251, “Discovery of a Series of Pyrimidine Carboxamides as Inhibitors of Vanin-1” (J Med Chem, 2022).

The target of data set [1] is T1, Pantetheinase (Homo sapiens, UniProt O95497).
T1 sequence (O95497 whole entry): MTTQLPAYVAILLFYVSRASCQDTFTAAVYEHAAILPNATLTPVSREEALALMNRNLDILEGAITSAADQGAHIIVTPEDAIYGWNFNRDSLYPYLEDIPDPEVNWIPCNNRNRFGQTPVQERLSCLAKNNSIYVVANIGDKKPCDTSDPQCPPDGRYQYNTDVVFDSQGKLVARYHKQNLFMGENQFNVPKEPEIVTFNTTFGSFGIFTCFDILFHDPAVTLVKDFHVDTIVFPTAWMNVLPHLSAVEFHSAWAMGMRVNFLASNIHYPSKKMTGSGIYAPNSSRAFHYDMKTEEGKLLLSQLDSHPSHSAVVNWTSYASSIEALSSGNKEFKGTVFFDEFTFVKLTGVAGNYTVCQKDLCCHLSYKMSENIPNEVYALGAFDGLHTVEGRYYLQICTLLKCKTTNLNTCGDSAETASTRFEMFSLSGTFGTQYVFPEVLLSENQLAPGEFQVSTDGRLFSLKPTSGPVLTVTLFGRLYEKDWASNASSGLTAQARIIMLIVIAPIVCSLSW
The data set can be described thus: Inhibition of recombinant N-terminal FLAG/His6-tagged human vanin-1 expressed in CHO cells using Pantetheine-7-amino-4-trifluoromethykournarin as substrate preincubated for 30 mins followed by substrate addition and measured after 60 mins.

Data set [2] is described as follows: Intrinsic clearance in human liver microsomes. It counts as ADME, Microsome. In general terms: Liver microsomes are vesicles of endoplasmic reticulum, rich in cytochrome P450 enzymes.
Data set [3] in a line: Apparent permeability across apical to basolateral side in RRCK cells. To be noted: dog, MDCK.
Data set [4] can be described thus: Lipophilicity, log D of the compound in Octanol/buffer by shake-flask method.
The target in data set [5] is T2, Pantetheinase (Mus musculus, UniProt Q9Z0K8).
T2 sequence (Q9Z0K8 whole entry): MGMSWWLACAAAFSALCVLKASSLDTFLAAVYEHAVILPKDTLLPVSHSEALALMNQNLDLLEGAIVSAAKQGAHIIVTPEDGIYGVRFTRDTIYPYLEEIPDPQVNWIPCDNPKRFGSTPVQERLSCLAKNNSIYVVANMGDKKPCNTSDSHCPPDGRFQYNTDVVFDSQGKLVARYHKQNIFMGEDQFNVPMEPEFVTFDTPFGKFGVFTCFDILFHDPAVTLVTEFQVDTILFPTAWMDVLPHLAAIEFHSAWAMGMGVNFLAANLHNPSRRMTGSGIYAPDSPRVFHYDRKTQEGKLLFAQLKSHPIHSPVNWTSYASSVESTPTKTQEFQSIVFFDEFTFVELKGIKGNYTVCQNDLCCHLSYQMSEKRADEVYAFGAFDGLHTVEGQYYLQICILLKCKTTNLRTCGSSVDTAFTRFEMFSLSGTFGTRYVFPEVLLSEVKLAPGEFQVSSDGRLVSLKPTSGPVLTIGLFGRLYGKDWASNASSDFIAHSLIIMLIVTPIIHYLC
The data set can be described thus: Inhibition of mouse vanin-1.

Data set [6] addresses T1, Pantetheinase. The data set can be described thus: Inhibition of human plasma vanin-1 using pantetheine-7-amino-4-trifluoromethykournarin as substrate preincubated for 30 mins followed by substrate addition. It counts as cell-free.
A further data set concerns the target T3, Biotinidase (Homo sapiens, UniProt P43251).
T3 sequence (P43251 whole entry): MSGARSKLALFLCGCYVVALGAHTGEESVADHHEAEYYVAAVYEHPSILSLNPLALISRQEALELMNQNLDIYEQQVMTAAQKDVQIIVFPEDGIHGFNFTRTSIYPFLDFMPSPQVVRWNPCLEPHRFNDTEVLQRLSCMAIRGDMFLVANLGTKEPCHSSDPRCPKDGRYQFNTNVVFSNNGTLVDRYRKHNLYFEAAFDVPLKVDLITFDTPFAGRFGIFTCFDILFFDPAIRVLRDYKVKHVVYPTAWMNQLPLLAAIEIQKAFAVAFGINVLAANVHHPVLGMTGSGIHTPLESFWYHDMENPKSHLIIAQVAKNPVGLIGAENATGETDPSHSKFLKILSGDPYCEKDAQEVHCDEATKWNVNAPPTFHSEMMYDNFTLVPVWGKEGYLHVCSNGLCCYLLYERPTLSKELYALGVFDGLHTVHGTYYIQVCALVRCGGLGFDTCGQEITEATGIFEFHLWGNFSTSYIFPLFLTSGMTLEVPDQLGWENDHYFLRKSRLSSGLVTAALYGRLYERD
The data set can be described thus: Inhibition of N-terminal FLAG/His6-tagged human biotinidase expressed in COS cells using biotinyl-7-amino-4-trifluoromethylcoumarin as substrate preincubated for 10 mins followed by substrate addition and measured after 90 mins. It counts as cell-based.

Data set [7] is described as follows: Intrinsic clearance in human hepatocytes assessed per million cells. It counts as ADME, cell-based, Hepatocyte.
A short description of data set [8]: Intrinsic clearance in rat hepatocytes assessed per million cells. It counts as ADME, cell-based, Hepatocyte.
Data set [9] is described as follows: Intrinsic clearance in human hepatocytes assessed per million cells by relay assay method. The format is ADME, cell-based, Hepatocyte.
The nature of data set [10]: Efflux ratio in human MDR cells. The format is ADME, cell-based.
A short description of data set [11]: Plasma protein binding in human assessed as unbound fraction. It counts as ADME, cell-free.
Data set [12] deals with T4, Pantetheinase (Homo sapiens) (UniProt O95497).
T4 sequence (whole entry): T1 sequence (O95497 whole entry)
The data set can be described thus: Binding affinity to recombinant N-terminal FLAG/His6-tagged human vanin-1 expressed in CHO cells assessed as binding constant (Kon) by surface plasmon resonance analysis.

For data set [13], the target named is T1, Pantetheinase. Briefly: Binding affinity to recombinant N-terminal FLAG/His6-tagged human vanin-1 expressed in CHO cells assessed as dissociation constant by surface plasmon resonance analysis. A general note: Surface plasmon resonance follows binding to a sensor surface in real time, without labels.
The target in data set [14] is T4, Pantetheinase (Homo sapiens). Briefly: Binding affinity to recombinant N-terminal FLAG/His6-tagged human vanin-1 expressed in CHO cells assessed as binding constant (Koff) by surface plasmon resonance analysis.
Data set [15] concerns the target T1, Pantetheinase. The data set can be described thus: Inhibition of recombinant N-terminal FLAG/His6-tagged human vanin-1 expressed in CHO cells at 10 uM by 1H NMR analysis. The format is cell-based.
Data set [16] is described as follows: Clearance in rat. To be noted: in vivo. The format is ADME.
Data set [17] is described as follows: Volume of distribution at steady state in rat. To be noted: in vivo, read-out: Vdss. The format is ADME.
Data set [18] is described as follows: Half life in rat. It counts as ADME. The note with it: in vivo.
Data set [19] can be described thus: Oral bioavailability in rat. The format is ADME, organism-based. To be noted: in vivo.
For the next data set, the target named is T5, Caspase-1 (Homo sapiens, UniProt P29466).
T5 sequence (P29466 whole entry): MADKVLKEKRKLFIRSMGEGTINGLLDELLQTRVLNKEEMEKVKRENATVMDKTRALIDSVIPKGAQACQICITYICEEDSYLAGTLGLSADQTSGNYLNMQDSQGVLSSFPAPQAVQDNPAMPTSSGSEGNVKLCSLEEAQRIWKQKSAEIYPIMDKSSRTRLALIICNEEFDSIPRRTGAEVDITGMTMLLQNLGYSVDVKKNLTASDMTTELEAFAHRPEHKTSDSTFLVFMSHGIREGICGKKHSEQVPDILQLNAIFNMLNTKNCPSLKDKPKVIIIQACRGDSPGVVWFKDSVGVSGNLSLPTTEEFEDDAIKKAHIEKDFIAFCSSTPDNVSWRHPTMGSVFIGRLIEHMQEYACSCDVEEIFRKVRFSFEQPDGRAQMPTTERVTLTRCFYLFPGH
Briefly: Inhibition of caspase-1 (unknown origin).

The target of a further data set is T6, Caspase-2 (Homo sapiens, UniProt P42575).
T6 sequence (P42575 whole entry): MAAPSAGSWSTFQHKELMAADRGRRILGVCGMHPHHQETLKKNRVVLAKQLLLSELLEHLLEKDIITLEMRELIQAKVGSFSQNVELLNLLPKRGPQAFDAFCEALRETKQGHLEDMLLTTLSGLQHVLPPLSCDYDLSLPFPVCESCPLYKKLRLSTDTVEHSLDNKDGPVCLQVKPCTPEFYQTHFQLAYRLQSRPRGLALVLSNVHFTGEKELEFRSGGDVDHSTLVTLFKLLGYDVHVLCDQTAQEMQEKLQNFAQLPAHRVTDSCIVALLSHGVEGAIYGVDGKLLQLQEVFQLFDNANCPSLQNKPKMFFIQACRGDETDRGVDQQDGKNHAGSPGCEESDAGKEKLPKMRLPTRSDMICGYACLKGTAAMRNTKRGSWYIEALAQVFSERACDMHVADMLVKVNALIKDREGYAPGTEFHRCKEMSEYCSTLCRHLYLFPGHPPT
The data set can be described thus: Inhibition of caspase-2 (unknown origin).

A further data set concerns the target T7, Caspase-3 (Homo sapiens, UniProt P42574).
T7 sequence (P42574 whole entry): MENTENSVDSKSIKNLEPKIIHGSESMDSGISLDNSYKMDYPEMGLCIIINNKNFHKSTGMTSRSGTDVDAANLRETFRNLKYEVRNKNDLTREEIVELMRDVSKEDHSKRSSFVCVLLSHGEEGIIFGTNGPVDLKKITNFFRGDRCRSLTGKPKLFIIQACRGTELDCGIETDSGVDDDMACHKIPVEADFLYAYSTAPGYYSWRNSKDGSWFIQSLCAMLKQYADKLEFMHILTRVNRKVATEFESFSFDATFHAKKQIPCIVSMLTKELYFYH
The data set can be described thus: Inhibition of caspase-3 (unknown origin).

SMILES strings stand for the structures.

Take `CC(C)(Nc1ncc(C(=O)N2CC3(CCOCC3)C2)cn1)c1cnccn1`: the 50% inhibitory concentration (IC50) amounted to 0.11 nM at Pantetheinase [1], 0.41 nM against Pantetheinase [5], 0.88 nM against Pantetheinase [6] and 1200 nM against Biotinidase. For the same molecule, the Intrinsic clearance in data set [2] is < 13 µL/min/mg. Further, the Papp A→B in data set [3] was determined as 14 ×10⁻⁶ cm/s. This molecule had a logD in data set [4] of 0.6. For the same molecule, the CLint was < 3.5 µL/min/1e6 cells in [7], 25.8 µL/min/1e6 cells in data set [8] and 1.66 µL/min/1e6 cells in data set [9].

`O=C(c1cnc(NC2(c3cncnc3)CC2)nc1)N1CCCCC1`: in [10], the efflux ratio was found to be 3.2. In addition, the fraction unbound in [11] was found to be 0.00918. The Intrinsic clearance in data set [2] is < 10 µL/min/mg. Further, the Papp A→B in data set [3] worked out at 9.5 ×10⁻⁶ cm/s. This molecule also came in with a pH-dependent lipophilicity (logD) in data set [4] of 0.7. Besides, the IC50 against Pantetheinase [5] is 10.2 nM; on Biotinidase, 18000 nM; at Pantetheinase [15], 115 nM; on Caspase-1, > 10000 nM; against Caspase-2 it was > 10000 nM; against Caspase-3, > 10000 nM. For the same molecule, the results for the K in data set [12] and in [14] were 8.1 10^7/M/s and 0.52 s⁻¹, respectively. Besides, the Kd on Pantetheinase [13] worked out at 20 nM. The CLint was determined as 11 µL/min/1e6 cells in data set [7] and 45 µL/min/1e6 cells in data set [8]. For the same molecule, the clearance in data set [16] is 88 mL/min/kg. The Vd in data set [17] was determined as 1.1 L/kg. The molecule also had a half-life in data set [18] of 9 min. This molecule also came in with a bioavailability in data set [19] of 11%.

As usually defined, the IC50 is the concentration that inhibits the measured activity by half. The Papp A→B is how fast a substance crosses the layer from the apical side. Broadly, the logD is the decadic logarithm of the distribution of all forms, ionised or not, between an organic phase and buffer at a given pH. Low readings indicate lower lipophilicity, high ones higher lipophilicity. Usually efflux ratio stands for a quotient of directional permeabilities that is used to spot active efflux. As a reminder, the fraction unbound is free concentration divided by total concentration. As a reminder, the Kd is the free concentration of one partner at which half of the binding sites on the other are occupied at equilibrium, for simple one-to-one binding. One may read the clearance as the rate of elimination divided by the concentration. Low readings indicate a low capacity for elimination, high ones a high capacity for elimination. The half-life is how long it takes for the measured level to halve. A lower half-life goes with fast loss. Broadly, the bioavailability is dose-corrected exposure relative to a reference, in per cent. Higher therefore signals much systemic uptake.
